Results reported in patent US12448394B2, “Heterocyclic pyrazole derivatives as type III receptor tyrosine kinase inhibitors” (DEVELOPMENT CENTER FOR BIOTECHNOLOGY, priority 2019, dated 2025).

Columns and labels:
[1] = tested on: A375 melanoma cell with BRAF V600E mutation; test: A375 cell proliferation assay (counter screen); assay type: cell-based, human; conditions: Homo sapiens, A-375, A375 cells, 72 hours treatment, CellTiter96, read-out: anti-proliferation activity A375 BRAF V600E, IC50 ranking
Procedure, shortened: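 A375 cells (BRAF V600E) seeded at 2000 cells/well in DMEM with 10% FBS, settled overnight at 37° C, 5% CO2, then exposed to increasing compound concentrations for 72 hours. Viability read by MTS-type CellTiter96 AQueous reagent, absorbance at 490 nm after 2–4 hours.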

[2] = tested on: THP-1 human acute monocytic leukemia cell with NRAS G12D mutation; test: THP-1 cell proliferation assay (counter screen); assay type: cell-based; conditions: Homo sapiens, THP-1 cells, 72 hours treatment, CellTiter96, read-out: anti-proliferation activity THP-1 NRAS N12D, IC50 ranking
Procedure, shortened: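 Viability measured as 490 nm absorbance after 2–4 h with CellTiter96 AQueous One reagent, following 72 h treatment with rising compound concentrations. THP-1 cells, 5000/well, grown in RPMI 1640 with 10% FBS and 0.05 mM 2-mercaptoethanol at 37° C, 5% CO2, plated overnight before dosing.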

[3] = target: T1, MET kinase (Homo sapiens, UniProt P08581); test: MET kinase assay (AlphaScreen, counter screen); assay type: biochemical; conditions: read-out: Ranking of IC50 values, MET
T1 construct: purchased SignalChem
Procedure, shortened: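 IC50 came from duplicate serial dilutions, with AlphaScreen detection of phosphorylated biotin-poly(Glu4:Tyr1). The reaction used 1 ng recombinant MET, 10 µM ATP […], and MOPS pH 7.0/MgCl2 buffer, ran 45 min at 30 °C, and was quenched with EDTA.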

[4] = tested on: HCC827 NSCLC cell with EGFR exon 19 deletion mutation; test: HCC827 cell proliferation assay (counter screen); assay type: cell-based, human; conditions: Homo sapiens, HCC827 cells, 72 hours treatment, CellTiter96, read-out: anti-proliferation activity HCC827 EGFR Exon19 del, IC50 ranking
Procedure, shortened: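 HCC827 cells (EGFR exon 19 deletion) were seeded at 8000 cells/well in RPMI1640 with 10% FBS, then exposed to increasing compound concentrations for 72 h at 37 °C. Viability was read by CellTiter96 AQueous One (MTS), absorbance 490 nm after 2–4 h.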

[5] = tested on: Molm-14 human acute myeloid leukemia cell with FLT3-ITD mutation; test: Molm-14 cell proliferation assay (CellTiter 96); assay type: cell-based; conditions: Homo sapiens; Molm-14 cells, 72 hours treatment, CellTiter96; read-out: anti-proliferation activity Molm-14 (FLT3-ITD), IC50 ranking
Procedure, shortened: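 Molm-14 (FLT3-ITD AML) cells in RPMI 1640 with 10% heat-inactivated FBS were seeded at 25000 cells/well, incubated overnight at 37° C, 5% CO2, then treated with increasing compound concentrations for 72 hours. Viability was read as absorbance at 490 nm after 2˜4 hours with CellTiter96 AQueous One reagent.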

[6] = tested on: MV4-11 human acute myeloid leukemia cell with FLT3-ITD mutation; test: MV4-11 cell proliferation assay (CellTiter 96); assay type: cell-based; conditions: Homo sapiens, MV4-11, 72 h, MV4-11 cells, 72 hours treatment, CellTiter96; read-out: anti-proliferation activity MV4-11 (FLT3-ITD), IC50 ranking
Procedure, shortened: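 Cells seeded at 6500/well in IMDM with 10% heat-inactivated FBS, left overnight at 37 °C, 5% CO2, then exposed to increasing compound concentrations for 72 h. Viability read as absorbance at 490 nm after 2–4 h with CellTiter96 AQueous One reagent.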

T1 sequence (P08581 25-1390): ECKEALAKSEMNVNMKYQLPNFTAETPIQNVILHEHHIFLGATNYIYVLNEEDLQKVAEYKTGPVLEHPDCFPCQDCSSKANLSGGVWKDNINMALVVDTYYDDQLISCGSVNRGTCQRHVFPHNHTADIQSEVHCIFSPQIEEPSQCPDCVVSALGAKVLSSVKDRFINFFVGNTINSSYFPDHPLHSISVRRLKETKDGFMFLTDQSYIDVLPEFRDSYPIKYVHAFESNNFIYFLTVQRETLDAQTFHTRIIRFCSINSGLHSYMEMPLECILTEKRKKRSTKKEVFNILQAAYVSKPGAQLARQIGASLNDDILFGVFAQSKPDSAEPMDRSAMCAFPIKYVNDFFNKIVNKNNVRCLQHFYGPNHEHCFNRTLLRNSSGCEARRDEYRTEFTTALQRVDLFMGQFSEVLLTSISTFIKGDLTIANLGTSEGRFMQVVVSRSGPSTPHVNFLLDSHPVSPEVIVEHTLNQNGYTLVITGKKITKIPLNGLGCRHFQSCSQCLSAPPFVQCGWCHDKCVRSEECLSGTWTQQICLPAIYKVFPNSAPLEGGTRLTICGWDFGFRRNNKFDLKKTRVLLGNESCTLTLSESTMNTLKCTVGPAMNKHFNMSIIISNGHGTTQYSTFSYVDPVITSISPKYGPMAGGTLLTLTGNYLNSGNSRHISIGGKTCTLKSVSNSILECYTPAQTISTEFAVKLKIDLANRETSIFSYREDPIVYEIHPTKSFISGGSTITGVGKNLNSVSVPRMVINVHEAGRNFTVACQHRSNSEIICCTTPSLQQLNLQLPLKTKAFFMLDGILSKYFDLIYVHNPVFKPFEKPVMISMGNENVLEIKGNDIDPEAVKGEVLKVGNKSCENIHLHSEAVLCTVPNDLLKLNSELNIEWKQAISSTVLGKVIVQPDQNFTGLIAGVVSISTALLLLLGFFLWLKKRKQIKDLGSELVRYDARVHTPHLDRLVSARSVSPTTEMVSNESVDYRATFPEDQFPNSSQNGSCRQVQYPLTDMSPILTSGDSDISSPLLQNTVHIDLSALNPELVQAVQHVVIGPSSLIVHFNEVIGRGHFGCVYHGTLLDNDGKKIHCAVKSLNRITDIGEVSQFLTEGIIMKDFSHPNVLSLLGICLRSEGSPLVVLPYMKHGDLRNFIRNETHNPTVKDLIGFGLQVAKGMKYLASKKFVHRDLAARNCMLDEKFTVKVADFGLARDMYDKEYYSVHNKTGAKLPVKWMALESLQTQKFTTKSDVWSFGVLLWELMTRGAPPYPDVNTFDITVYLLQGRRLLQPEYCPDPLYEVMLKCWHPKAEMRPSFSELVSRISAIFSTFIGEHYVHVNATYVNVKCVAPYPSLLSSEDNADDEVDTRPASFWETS

SMILES | IC50 [3] [nM] | IC50 [5] [nM] | IC50 [6] [nM] | IC50 [1] [nM] | IC50 [2] [nM] | IC50 [4] [nM]
Nc1ccc(-c2cc3c(s2)Cc2c(-c4ccc5[nH]ncc5c4)n[nH]c2-3)cn1 [Compound 40, 5-(3-(1H-indazol-5-yl)-1,4-dihydrothieno [2′,3′:4,5]cyclopenta [1,2-c]pyrazol-6-yl) pyridin-2-amine] | > 1000 | < 30 | < 30 | 1000 to 10000 | 1000 to 10000 | 1000 to 10000
Nc1ccc(-c2cc3c(s2)Cc2c(-c4ccc5cn[nH]c5c4)n[nH]c2-3)cn1 [Compound 3, 5-(3-(1H-indazol-6-yl)-1,4-dihydrothieno[2′,3′:4,5]cyclopenta[1,2-c]pyrazol-6-yl)pyridin-2-amine] | > 1000 | < 30 | < 30 | > 10000 | > 10000 | > 10000
Cc1ccc(-c2cc3c(s2)Cc2c(-c4ccc5[nH]ncc5c4)n[nH]c2-3)cn1 [Compound 36, 3-(1H-indazol-5-yl)-6-(6-methylpyridin-3-yl)-1,4-dihydrothieno[2′,3′:4,5] cyclopenta[1,2-c]pyrazole] | > 1000 | 30 to 100 | < 30 | > 10000 | > 10000 | > 10000
COc1ccc(-c2cc3c(s2)Cc2c(-c4ccc5cn[nH]c5c4)n[nH]c2-3)cn1 [Compound 2, 3-(1H-indazol-6-yl)-6-(6-methoxypyridin-3-yl)-1,4-dihydrothieno[2′,3′:4,5] cyclopenta[1,2-c]pyrazole] | > 1000 | 30 to 100 | 30 to 100 | > 10000 | > 10000 | > 10000
CN(C)Cc1ccc(-c2cc3c(s2)Cc2c(-c4ccc5cnn(C)c5c4)n[nH]c2-3)cn1 [Compound 93, N,N-dimethyl-1-(5-(3-(1-methyl-1H-indazol-6-yl)-1,4-dihydrothieno [2′,3′:4,5]cyclopenta [1,2-c]pyrazol-6-yl)pyridin-2-yl)methanamine] | > 1000 | 100 to 300 | 30 to 100 | > 10000 | > 10000 | > 10000
COc1ccc(-c2cc3c(s2)Cc2c(-c4ccc5cnn(C)c5c4)n[nH]c2-3)cn1 [Compound 4, 6-(6-methoxypyridin-3-yl)-3-(1-methyl-1H-indazol-6-yl)-1,4-dihydrothieno [2′,3′:4,5]cyclopenta[1,2-c] pyrazole] | > 1000 | 100 to 300 | 100 to 300 | > 10000 | > 10000 | > 10000
COc1ccc(-c2cc3c(s2)Cc2c(-c4ccc5[nH]ncc5c4)n[nH]c2-3)cn1 [Compound 1, 3-(1H-indazol-5-yl)-6-(6-methoxypyridin-3-yl)-1,4-dihydrothieno[2′,3′:4,5] cyclopenta[1,2-c]pyrazole] | > 1000 | 30 to 100 | 30 to 100 | > 10000 | > 10000 | > 10000
CN(C)Cc1ccc(-c2cc3c(s2)Cc2c(-c4ccc5cnn(C)c5c4)n[nH]c2-3)cc1 [Compound 94, N,N-dimethyl-1-(4-(3-(1-methyl-1H-indazol-6-yl)-1,4-dihydrothieno [2′,3′:4,5]cyclopenta [1,2-c]pyrazol-6-yl)phenyl)methanamine] | 300 to 1000 | < 30 | < 30 | 1000 to 10000 | 1000 to 10000 | 1000 to 10000
Cc1ccc(-c2cc3c(s2)Cc2c(-c4ccc5cn[nH]c5c4)n[nH]c2-3)cn1 [Compound 30, 3-(1H-indazol-6-yl)-6-(6-methylpyridin-3-yl)-1,4-dihydrothieno[2′,3′:4,5] cyclopenta[1,2-c]pyrazole] | > 1000 | 30 to 100 | 30 to 100 | > 10000 | > 10000 | > 10000

Second part, led by results:

IC50 [3] [nM] | IC50 [5] [nM] | IC50 [6] [nM] | SMILES | IC50 [1] [nM] | IC50 [2] [nM] | IC50 [4] [nM]
> 1000 | < 30 | < 30 | Cn1ncc2ccc(-c3n[nH]c4c3Cc3sc(-c5ccc(CN6CCNCC6=O)cc5)cc3-4)cc21 [Compound 101, 1-(4-(3-(1-methyl-1H-indazol-6-yl)-1,4-dihydro-thieno[2′,3′:4,5]cyclopenta [1,2-c]pyrazol-6-yl)benzyl)piperazin-2-one] | > 10000 | > 10000 | > 10000
> 1000 | 100 to 300 | 100 to 300 | Cc1cc(CN2CCOCC2)ccc1-c1cc2c(s1)Cc1c(-c3ccc4cnn(C)c4c3)n[nH]c1-2 [Compound 91, 4-(3-methyl-4-(3-(1-methyl-1H-indazol-6-yl)-1,4-dihydrothieno [2′,3′:4,5]cyclopenta [1,2-c]pyrazol-6-yl)benzyl)morpholine] | > 10000 | 1000 to 10000 | > 10000
300 to 1000 | 300 to 1000 | < 30 | CN1CCN(c2ccc(-c3cc4c(s3)Cc3c(-c5ccc6cnn(C)c6c5)n[nH]c3-4)cn2)CC1 [Compound 85, 3-(1-methyl-1H-indazol-6-yl)-6-(6-(4-methyl-piperazin-1-yl)pyridin-3-yl)-1,4-dihydrothieno [2′,3′:4,5]cyclopenta [1,2-c]pyrazole] | 1000 to 10000 | > 10000 | > 10000
> 1000 | 30 to 100 | 30 to 100 | Cn1nnc2ccc(-c3n[nH]c4c3Cc3sc(-c5ccc(CN6CCOCC6)cc5)cc3-4)cc21 [Compound 89, 4-(4-(3-(1-methyl-1H-benzo[d][1,2,3]triazol-6-yl)-1,4-dihydrothieno [2′,3′:4,5]cyclopenta [1,2-c]pyrazol-6-yl)benzyl)morpholine] | > 10000 | > 10000 | > 10000
> 1000 | 300 to 1000 | 300 to 1000 | Cn1ncc2ccc(-c3n[nH]c4c3Cc3sc(-c5ccc(CN6CCOCC6)cc5OC(F)(F)F)cc3-4)cc21 [Compound 90, 4-(4-(3-(1-methyl-1H-indazol-6-yl)-1,4-dihydro-thieno[2′,3′:4,5]cyclopenta [1,2-c]pyrazol-6-yl)-3-(trifluoromethoxy)benzyl) morpholine] | > 10000 | > 10000 | > 10000
> 1000 | 30 to 100 | < 30 | Cn1ncc2ccc(-c3n[nH]c4c3Cc3sc(-c5ccc(CN6CCOC6=O)cc5)cc3-4)cc21 [Compound 62, 3-(4-(3-(1-methyl-1H-indazol-6-yl)-1,4-dihydro-thieno[2′,3′:4,5]cyclopenta [1,2-c]pyrazol-6-yl)benzyl)oxazolidin-2-one] | > 10000 | > 10000 | > 10000
300 to 1000 | 300 to 1000 | 30 to 100 | CN1CCN(c2cc(-c3cc4c(s3)Cc3c(-c5ccc6cnn(C)c6c5)n[nH]c3-4)ccn2)CC1 [Compound 87, 3-(1-methyl-1H-indazol-6-yl)-6-(2-(4-methyl-piperazin-1-yl)pyridin-4-yl)-1,4-dihydrothieno [2′,3′:4,5]cyclopenta [1,2-c]pyrazole] | > 10000 | > 10000 | > 10000
> 1000 | 300 to 1000 | 300 to 1000 | Cn1ncc2ccc(-c3n[nH]c4c3Cc3sc(-c5ccc(CN6CCOCC6)c(F)c5F)cc3-4)cc21 [Compound 88, 4-(2,3-difluoro-4-(3-(1-methyl-1H-indazol-6-yl)-1,4-dihydrothieno [2′,3′:4,5]cyclopenta [1,2-c]pyrazol-6-yl)benzyl)morpholine] | > 10000 | > 10000 | > 10000
> 1000 | 300 to 1000 | 100 to 300 | Cc1n[nH]c2cc(-c3n[nH]c4c3Cc3sc(-c5ccc(CN6CCOCC6)cc5)cc3-4)ccc12 [Compound 81, 4-(4-(3-(3-methyl-1H-indazol-6-yl)-1,4-dihydro-thieno[2′,3′:4,5]cyclopenta [1,2-c]pyrazol-6-yl)benzyl)morpholine] | 1000 to 10000 | 1000 to 10000 | > 10000
